Test results reported in ChEMBL document CHEMBL1201862, “PubChem BioAssay data set” (2004).
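Test compounds were applied to cells in 96-well plates for 48 hours at 5 doses. GI50 = concentration required for 50% inhibition of growth.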 Calls of active or inactive are those of the source. Cut-off read from the data, not from the text of the source: active = GI50 up to about 1.1 µM and inactive = higher.

What was measured:
Assay in all cases: NCI tumour cell line growth inhibition, 48 h
CAKI-1 = tested on: CAKI-1
SK-MEL-28 = tested on: SK-MEL-28
OVCAR-8 = tested on: OVCAR-8
NCI-H23 = tested on: NCI-H23
UO-31 = tested on: UO-31
DU-145 = tested on: DU-145
SK-OV-3 = tested on: SK-OV-3
NCI-H522 = tested on: NCI-H522
HCT-116 = tested on: HCT-116
A498 = tested on: A498
Malme-3M = tested on: Malme-3M
786-0 = tested on: 786-0
NCI-H460 = tested on: NCI-H460
MOLT-4 = tested on: MOLT-4
HOP-92 = tested on: HOP-92
UACC-257 = tested on: UACC-257
MCF7 = tested on: MCF7
SF-539 = tested on: SF-539
SN12C = tested on: SN12C
MDA-N = tested on: MDA-N

| Compound | GI50 (CAKI-1) | GI50 (SK-MEL-28) | GI50 (OVCAR-8) | GI50 (NCI-H23) | GI50 (UO-31) | GI50 (DU-145) | GI50 (SK-OV-3) | GI50 (NCI-H522) | GI50 (HCT-116) | GI50 (A498) | GI50 (Malme-3M) | GI50 (786-0) | GI50 (NCI-H460) | GI50 (MOLT-4) | GI50 (HOP-92) | GI50 (UACC-257) | GI50 (MCF7) | GI50 (SF-539) | GI50 (SN12C) | GI50 (MDA-N) |
| --- | --- | --- | --- | --- | --- | --- | --- | --- | --- | --- | --- | --- | --- | --- | --- | --- | --- | --- | --- | --- |
| CN1CCN(c2ccc3c(c2)NCC(=O)N3)CC1 | > 100 µM (inactive) | > 100 µM (inactive) | > 100 µM (inactive) | > 100 µM (inactive) | > 100 µM (inactive) | > 100 µM (inactive) | > 100 µM (inactive) | > 100 µM (inactive) | > 100 µM (inactive) | > 100 µM (inactive) | > 100 µM (inactive) | > 100 µM (inactive) | > 100 µM (inactive) | > 100 µM (inactive) | > 100 µM (inactive) | > 100 µM (inactive) |  |  |  |  |
| CCOC(=O)Cn1nnc2cc(Nc3c(C)[n+]([O-])c4cc(F)c(OCC)cc4[n+]3[O-])ccc21 | > 100 µM (inactive) | > 100 µM (inactive) | > 100 µM (inactive) | > 100 µM (inactive) | > 100 µM (inactive) | > 100 µM (inactive) | 38.6 µM (inactive) | > 100 µM (inactive) | > 100 µM (inactive) | > 100 µM (inactive) |  | 43.4 µM (inactive) | > 100 µM (inactive) | 0.273 µM (active) | 13.6 µM (inactive) | > 100 µM (inactive) | > 100 µM (inactive) | > 100 µM (inactive) |  |  |
| CN(C)CCNC(=O)c1cccc2ccc(-c3ccc(Br)cc3)nc12 | 1.3 µM (inactive) | 3.76 µM (inactive) | 1.55 µM (inactive) | 3.47 µM (inactive) | 1.76 µM (inactive) |  | 2.82 µM (inactive) | 1.6 µM (inactive) | 1.23 µM (inactive) | 1.99 µM (inactive) | 2.55 µM (inactive) |  | 0.767 µM (active) | 0.333 µM (active) | 2.49 µM (inactive) | 2.8 µM (inactive) | 2.92 µM (inactive) | 3.13 µM (inactive) | 2.33 µM (inactive) |  |
| C=C1C(=O)O[C@@H]2OC3(C)CCC4C(C)CCC1C42OO3 (stereo partly drawn) | 2.36 µM (inactive) | 11.5 µM (inactive) | 3.09 µM (inactive) | 5.6 µM (inactive) | 9.84 µM (inactive) |  | 20.3 µM (inactive) | 1.7 µM (inactive) | 1.53 µM (inactive) | 3.33 µM (inactive) |  |  | 2.38 µM (inactive) | 1.52 µM (inactive) | 1.85 µM (inactive) | 3.18 µM (inactive) | 3.39 µM (inactive) | 2.48 µM (inactive) | 3.82 µM (inactive) |  |
| CC(=O)OCC1OC(NC(=O)N(CCCl)N=O)C(OC(C)=O)C(OC(C)=O)C1OC(C)=O (stereo not drawn) | > 86.7 µM (inactive) | > 100 µM (inactive) | > 100 µM (inactive) | > 100 µM (inactive) | > 100 µM (inactive) |  | > 100 µM (inactive) | > 100 µM (inactive) | > 100 µM (inactive) | > 100 µM (inactive) | > 100 µM (inactive) |  | > 83.8 µM (inactive) | > 31.6 µM (inactive) | > 100 µM (inactive) | > 100 µM (inactive) | > 100 µM (inactive) | > 89.1 µM (inactive) | > 100 µM (inactive) |  |
| C=C1C(=O)O[C@H]2C1C[C@H](O)[C@@]1(C)OC1CC[C@@]1(C)O[C@H]21 (stereo partly drawn) | 17.7 µM (inactive) | 19.4 µM (inactive) | 19 µM (inactive) | 19.5 µM (inactive) | 17.1 µM (inactive) | 34.5 µM (inactive) | 61.8 µM (inactive) | 2.79 µM (inactive) | 16.6 µM (inactive) |  | 12 µM (inactive) | 21 µM (inactive) | > 100 µM (inactive) | 10.1 µM (inactive) | 20.6 µM (inactive) | 18.1 µM (inactive) | 15.4 µM (inactive) |  | 17.4 µM (inactive) |  |
| Cn1c(CO)ccc1-c1ccc(-c2ccc(CO)[se]2)[se]1 | 0.0176 µM (active) | 17 µM (inactive) | 6.89 µM (inactive) | 16.3 µM (inactive) | > 100 µM (inactive) | 12.9 µM (inactive) | > 50.4 µM (inactive) | 18.8 µM (inactive) | 0.859 µM (active) | 0.023 µM (active) | 4.15 µM (inactive) | 9.04 µM (inactive) | 18.4 µM (inactive) | 3.76 µM (inactive) |  | 0.192 µM (active) | 0.251 µM (active) | 67 µM (inactive) | 10.6 µM (inactive) |  |
| COc1ccc2[nH]c3c(C)c4cc[n+](COC(=O)c5ccccc5)cc4c(C)c3c2c1 | 0.569 µM (active) | 1.31 µM (inactive) | 0.0851 µM (active) | 0.428 µM (active) | 1.76 µM (inactive) |  | 1.22 µM (inactive) | 0.391 µM (active) | 0.0378 µM (active) | 1.11 µM (active) | 1.43 µM (inactive) | 0.138 µM (active) | 0.0357 µM (active) | 0.0379 µM (active) | 0.375 µM (active) | 1.19 µM (inactive) |  | 0.305 µM (active) | 0.197 µM (active) |  |
| O=C(O)COc1ccc(C(=O)/C(SS/C(C(=O)c2ccc(OCC(=O)O)c(Cl)c2Cl)=C2\C=C(c3ccc(Br)cc3)SS2)=C2/C=C(c3ccc(Br)cc3)SS2)c(Cl)c1Cl | 13.6 µM (inactive) | 24.8 µM (inactive) | 5.16 µM (inactive) | 4.62 µM (inactive) | 4.32 µM (inactive) | 16.8 µM (inactive) | 21.3 µM (inactive) | 0.798 µM (active) | 3.9 µM (inactive) | 18.2 µM (inactive) | 11.5 µM (inactive) | 3.87 µM (inactive) | 19.3 µM (inactive) | 3.44 µM (inactive) | 3.5 µM (inactive) | 25.3 µM (inactive) | 0.0513 µM (active) | 4.3 µM (inactive) | 6.32 µM (inactive) |  |
| C/C(=N\NC(=S)N1CCN(C2CCCCCC2)CC1)c1ccccn1 | 0.037 µM (active) | 0.238 µM (active) | 0.01 µM (active) | 0.01 µM (active) | 0.1 µM (active) | 1.02 µM (active) | 0.0565 µM (active) | < 0.0253 µM (active) | 0.01 µM (active) | 1.49 µM (inactive) | 0.105 µM (active) |  | 0.01 µM (active) | 0.01 µM (active) | 0.0473 µM (active) | 0.01 µM (active) | 0.01 µM (active) | 0.0927 µM (active) | 0.111 µM (active) |  |
| Cn1c2ccc(C3=NCCN3)cc2c2cc(C3=NCCN3)ccc21 | > 100 µM (inactive) | 24 µM (inactive) | 28.9 µM (inactive) | 4.16 µM (inactive) | 56.1 µM (inactive) | 26.4 µM (inactive) | 44.1 µM (inactive) | 0.0775 µM (active) | 21.9 µM (inactive) | > 100 µM (inactive) | 18.2 µM (inactive) | 38.7 µM (inactive) | 5.38 µM (inactive) | 0.637 µM (active) | 13.4 µM (inactive) | 43.8 µM (inactive) |  | 29.4 µM (inactive) | 6.31 µM (inactive) | 53.1 µM (inactive) |
| NC(CCCCCP(=O)(O)O)C(=O)O (stereo not drawn) [AP-7] | > 100 µM (inactive) | > 100 µM (inactive) | > 100 µM (inactive) | > 100 µM (inactive) | > 100 µM (inactive) | > 100 µM (inactive) | > 100 µM (inactive) | > 100 µM (inactive) | > 100 µM (inactive) |  |  |  | > 100 µM (inactive) | > 100 µM (inactive) | > 100 µM (inactive) | > 100 µM (inactive) |  | > 100 µM (inactive) | > 100 µM (inactive) | > 100 µM (inactive) |
| CC1=C2C=CC(=O)C[C@@]2(C)CCC1 | > 100 µM (inactive) | > 100 µM (inactive) | > 100 µM (inactive) | > 100 µM (inactive) | > 100 µM (inactive) |  | > 100 µM (inactive) | > 100 µM (inactive) | > 100 µM (inactive) | > 100 µM (inactive) | > 100 µM (inactive) | > 100 µM (inactive) | > 100 µM (inactive) | > 100 µM (inactive) | > 100 µM (inactive) | > 100 µM (inactive) |  | > 100 µM (inactive) | > 100 µM (inactive) |  |
| O=C(O)COc1ccc(C(=O)/C(SS/C(C(=O)c2ccc(OCC(=O)O)c(Cl)c2Cl)=C2\C=C(c3ccccc3Cl)SS2)=C2/C=C(c3ccccc3Cl)SS2)c(Cl)c1Cl | 39.4 µM (inactive) | 20.6 µM (inactive) | 23.7 µM (inactive) | 22 µM (inactive) | 24.3 µM (inactive) |  | 44.1 µM (inactive) | 3.27 µM (inactive) | 18 µM (inactive) | 34.7 µM (inactive) | 53.8 µM (inactive) | 19.8 µM (inactive) | 21.8 µM (inactive) | 21.9 µM (inactive) | 7.89 µM (inactive) | 48.8 µM (inactive) |  | 11.8 µM (inactive) | 30.6 µM (inactive) |  |
| CC1=CC2=C(C)C3(CC3)[C@@](C)(O)C(=O)C2=C1 | 0.269 µM (active) | 0.194 µM (active) | 0.211 µM (active) | 0.0822 µM (active) | 0.19 µM (active) |  | 0.293 µM (active) | 0.145 µM (active) | 0.171 µM (active) | 0.241 µM (active) | 0.0933 µM (active) | 0.217 µM (active) | 0.0783 µM (active) | > 1 µM (active) | 0.307 µM (active) | 0.237 µM (active) |  | 0.219 µM (active) | 0.231 µM (active) |  |
| COc1ccc(C2C=C(c3ccc(C)cc3)N(c3ccc(OC)cc3[N+](=O)[O-])C3C(=O)OC(=O)C23)c(OC)c1 (stereo not drawn) | 37.3 µM (inactive) | > 100 µM (inactive) | 16.2 µM (inactive) | 52.4 µM (inactive) |  |  | 25 µM (inactive) | 10.4 µM (inactive) | 28.2 µM (inactive) | 67 µM (inactive) | 11.1 µM (inactive) | 30.8 µM (inactive) | 71.3 µM (inactive) | 32.6 µM (inactive) |  | 77.6 µM (inactive) | 42.5 µM (inactive) | 24.4 µM (inactive) |  |  |
